In PMC8119466, “A screen of FDA-approved drugs identifies inhibitors of protein tyrosine phosphatase 4A3 (PTP4A3 or PRL-3)” (Scientific Reports, 2021):
Counter-ions that a name gives are not always drawn. Like-named read-outs stand apart in the source and are kept apart here.

What was measured:
Format in all cases: biochemical
recombinant PRL-3 = target: T1, recombinant PRL-3 (Homo sapiens, UniProt O75365); experiment: In vitro phosphatase assay (DiFMUP hydrolysis), PRL-3; also: test concentration or dose not given here
T1 construct: 6xHis (N, cleaved yes); made in house; host or cells: E. coli One Shot BL21 Star
T1 sequence (O75365 whole entry): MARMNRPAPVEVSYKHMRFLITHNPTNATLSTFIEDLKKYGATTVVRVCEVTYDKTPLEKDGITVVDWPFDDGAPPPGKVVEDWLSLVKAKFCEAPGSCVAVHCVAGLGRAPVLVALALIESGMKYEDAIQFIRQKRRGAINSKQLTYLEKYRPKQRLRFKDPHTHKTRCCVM

recombinant PRL-2 = target: T2, recombinant PRL-2 (Homo sapiens, UniProt Q12974); experiment: In vitro phosphatase assay (DiFMUP hydrolysis), PRL-2;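 also: PRL-2 activity read as DiFMUP hydrolysis after 20 min at room temperature with drug, enzyme first pre-reduced at 4 °C for 20 min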
T2 construct: 6xHis (N, cleaved yes); made in house; host or cells: E. coli One Shot BL21 Star
T2 sequence (Q12974 1-167): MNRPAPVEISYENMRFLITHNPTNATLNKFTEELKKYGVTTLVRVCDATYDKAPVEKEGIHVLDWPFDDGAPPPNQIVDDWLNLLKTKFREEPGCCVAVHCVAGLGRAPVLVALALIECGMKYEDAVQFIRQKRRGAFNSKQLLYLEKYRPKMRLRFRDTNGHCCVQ

recombinant PRL-1 = target: T3, recombinant PRL-1 (Homo sapiens, UniProt Q93096); experiment: In vitro phosphatase assay (DiFMUP hydrolysis), PRL-1; also: test concentration or dose not given here
T3 construct: 6xHis (N, cleaved yes); made in house; host or cells: E. coli One Shot BL21 Star
T3 sequence (Q93096 1-173): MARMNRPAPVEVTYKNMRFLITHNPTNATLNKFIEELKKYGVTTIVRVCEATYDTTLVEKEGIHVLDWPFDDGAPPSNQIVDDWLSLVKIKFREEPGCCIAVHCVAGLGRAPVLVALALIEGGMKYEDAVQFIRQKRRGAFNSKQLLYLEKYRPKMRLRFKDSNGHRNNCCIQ

[1] = FDA-approved drug screen, compared to DMSO

Row | SMILES | % Phosphatase Activity (compared to DMSO) PRL-3 (recombinant PRL-3; [1]) | % Phosphatase Activity (compared to DMSO) PRL-2 (recombinant PRL-2; [1]) | % Phosphatase Activity (compared to DMSO) PRL-1 (recombinant PRL-1; [1]) | % Phosphatase Activity (compared to DMSO) PRL-3 (recombinant PRL-3) | % Phosphatase Activity (compared to DMSO) PRL-2 (recombinant PRL-2) | % Phosphatase Activity (compared to DMSO) PRL-1 (recombinant PRL-1)
1 | CC#CCn1c(N2CCC[C@@H](N)C2)nc2c1c(=O)n(Cc1nc(C)c3ccccc3n1)c(=O)n2C [Linagliptin] | 100% | 131% | 115% | – | – | –
2 | CCC[C@@H]1C[C@@H](C(=O)N[C@@H]([C@H]2O[C@H](SC)[C@H](O)[C@@H](O)[C@H]2O)[C@@H](C)O)N(C)C1 [Lincomycin HCl] | 76% | 111% | 109% | – | – | –
3 | CC(=O)NC[C@H]1CN(c2ccc(N3CCOCC3)c(F)c2)C(=O)O1 [Linezolid] | 89% | 97% | 98% | – | – | –
4 | Cc1ccc(F)c(NC(=O)Nc2ccc(-c3cccc4[nH]nc(N)c34)cc2)c1 [Linifanib (ABT-869)] | 133% | 151% | 133% | – | – | –
5 | NCCCC[C@H](N[C@@H](CCc1ccccc1)C(=O)O)C(=O)N1CCC[C@H]1C(=O)O [Lisinopril] | 93% | 86% | 100% | – | – | –
6 | C[C@H](CCC(=O)O)[C@H]1CC[C@H]2[C@@H]3CC[C@@H]4C[C@H](O)CC[C@]4(C)[C@H]3CC[C@]12C [Lithocholic acid] | 73% | 75% | 82% | – | – | –
7 | CCn1cc(C(=O)O)c(=O)c2cc(F)c(N3CCNC(C)C3)c(F)c21 (stereo not drawn) [Lomefloxacin HCl] | 110% | 121% | 123% | – | – | –
8 | COc1ccc(CN2CCN(C(c3ccc(F)cc3)c3ccc(F)cc3)CC2)c(OC)c1OC.Cl.Cl [Lomerizine HCl] | 84% | 118% | 97% | – | – | –
9 | O=C(NC1CCN(CCCCC2(C(=O)NCC(F)(F)F)c3ccccc3-c3ccccc32)CC1)c1ccccc1-c1ccc(C(F)(F)F)cc1 [Lomitapide Mesylate] | 125% | 119% | 129% | – | – | –
10 | O=C(NC1CCN(CCCCC2(C(=O)NCC(F)(F)F)c3ccccc3-c3ccccc32)CC1)c1ccccc1-c1ccc(C(F)(F)F)cc1 [Lomitapide] | 117% | 118% | 124% | – | – | –
11 | O=NN(CCCl)C(=O)NC1CCCCC1 [Lomustine] | 94% | 105% | 96% | – | – | –
12 | NC(=O)N1CCC(CC(=O)N2CCC([C@H]3c4ncc(Br)cc4CCc4cc(Cl)cc(Br)c43)CC2)CC1 [Lonafarnib] | 97% | 103% | 97% | – | – | –
13 | O=C(O)c1nn(Cc2ccc(Cl)cc2Cl)c2ccccc12 [Lonidamine] | 85% | 106% | 102% | – | – | –
14 | CN(C)C(=O)C(CCN1CCC(O)(c2ccc(Cl)cc2)CC1)(c1ccccc1)c1ccccc1 [Loperamide HCl] | 81% | 99% | 105% | – | – | –
15 | Cc1cccc(C)c1OCC(=O)N[C@@H](Cc1ccccc1)[C@@H](O)C[C@H](Cc1ccccc1)NC(=O)[C@H](C(C)C)N1CCCNC1=O [Lopinavir] | 62% | 101% | 90% | – | – | –
16 | CCOC(=O)N1CCC(=C2c3ccc(Cl)cc3CCc3cccnc32)CC1 [Loratadine] | 65% | 90% | 89% | – | – | –
17 | CN1C(C(=O)Nc2ccccn2)=C(O)c2sc(Cl)cc2S1(=O)=O [Lornoxicam] | 81% | 84% | 73% | – | – | –
18 | CCCCc1nc(Cl)c(CO)n1Cc1ccc(-c2ccccc2-c2nnn[n-]2)cc1.[K+] [Losartan Potassium (DuP 753)] | 71% | 93% | 94% | – | – | –
19 | Cc1c(F)cc(C(=O)NC2CC2)cc1-c1ccc(C(=O)NCC(C)(C)C)cn1 [Losmapimod (GW856553X)] | 103% | 66% | 91% | – | – | –
20 | CCOC(=O)O[C@]1(C(=O)OCCl)CC[C@H]2[C@@H]3CCC4=CC(=O)C=C[C@]4(C)[C@H]3[C@@H](O)C[C@@]21C [Loteprednol etabonate] | 82% | 89% | 100% | – | – | –
21 | CC[C@H](C)C(=O)O[C@H]1C[C@@H](C)C=C2C=C[C@H](C)[C@H](CC[C@@H]3C[C@@H](O)CC(=O)O3)[C@H]21 [Lovastatin] | 87% | 93% | 89% | – | – | –
22 | CN1CCN(C2=Nc3ccccc3Oc3ccc(Cl)cc32)CC1 [Loxapine Succinate] | 90% | 110% | 96% | – | – | –
23 | CC(C(=O)O)c1ccc(CC2CCCC2=O)cc1 (stereo not drawn) [Loxoprofen] | 102% | 83% | 109% | – | – | –
24 | N#C/C(=C1/SC[C@@H](c2ccc(Cl)cc2Cl)S1)n1ccnc1 [Luliconazole] | 83% | 90% | 98% | – | – | –
25 | Cn1cnc2c(F)c(Nc3ccc(Br)cc3F)c(C(=O)NOCCO)cc21 [MEK162 (ARRY-162, ARRY-438162)] | 91% | 72% | 85% | – | – | –
26 | CC(C)C[C@H](NC(=O)CNC(=O)c1cc(Cl)ccc1Cl)B(O)O [MLN2238] | 86% | 105% | 102% | – | – | –
27 | CCCNS(=O)(=O)Nc1ncnc(OCCOc2ncc(Br)cn2)c1-c1ccc(Br)cc1 [Macitentan] | 85% | 75% | 93% | – | – | –
28 | CC(C)OC(=O)C(C(=O)OC(C)C)=C1SC=CS1 [Malotilate] | 61% | 58% | 70% | – | – | –
29 | COC(=O)C1=C(C)NC(C)=C(C(=O)OCCN2CCN(C(c3ccccc3)c3ccccc3)CC2)C1c1cccc([N+](=O)[O-])c1.Cl.Cl (stereo not drawn) [Manidipine 2HCl] | 82% | 87% | 97% | – | – | –
30 | CNCCCC12CCC(c3ccccc31)c1ccccc12 [Maprotiline HCl] | – | – | – | 87% | 116% | 127%
